Results taken from patent US5101072A, “Sulfonylhydrazines and their use as antineoplastic agents and as antitrypanosomal agents” (Yale University, priority 1989, dated 1992).

Key:
[1] = test system: early-stage sleeping sickness; settings: man and animals; cited from earlier work
[2] = test system: T. brucei; settings: cited from earlier work
[3] = test system: decarboxylated S-adenosylmethionine (DSAM) and S-adenosylmethionine (SAM); settings: cited from earlier work
[4] = test system: T. evansi; test: Activity against T. evansi
Procedure: (§1) A representative agent, 1,2-bis(methylsulfonyl)-1-methylhydrazine, was also tested against several other trypanosoma species.

[5] = Methanol generation in vitro (spontaneous breakdown to generate reactive methyl groups); type: physicochemical; settings: aqueous buffered (pH 7.6) solution
Procedure: (§2) The reaction of 1,2-bis(sulfonyl)-1-methylhydrazine with water at pH 7.4-7.6 at 37° C. can be followed by proton release and/or methanol generation. Methanol generation can be assayed using alcohol oxidase and measuring the resultant O2 consumption using a Gilson oxygraph. This assay can be calibrated using methanol standards. The reaction of 1,2-bis(sulfonyl)-1-methylhydrazine with water is relatively fast [a 50 μM solution of 1,2-bis(methylsulfonyl)-1-methylhydrazine decomposes at an initial rate of 12-15% per minute in phosphate buffered saline (pH 7.6) at 37° C.] compared to the hydroylsis of 1,2,2-tris(methylsulfonyl)-1-methylhydrazine. RSO2 N=NMe may also decompose by a free radical mechanism to a smaller extent and methylate by the generation of methyl radicals.
Methanol was produced by these agents in aqueous solutions free from strong competing nucleophiles. Formation of this alcohol was used as a measure of the rate of spontaneous breakdown of these compounds to generate reactive methyl groups. […] These findings provide strong evidence that methylation is essential for the observed biological activity of these compounds.

[6] = test system: T. gambiense; test: Activity against T. gambiense
Procedure: as §1

[7] = Hydrolysis / decomposition in aqueous solution; type: physicochemical
Procedure: In the case of 1,2,2-tris(methylsulfonyl)-1-methylhydrazine, this reaction occurs slowly. A 50 μM solution of this compound hydrolyzes at an initial rate of 1% per minute in phosphate buffered saline (pH 7.6) at 37° C.
Hydrolysis is expected to occur preferentially at N-2 to generate the 1,2-bis(sulfonyl)-1-methylhydrazine. The sulfonic acid and 1,2-bis(sulfonyl)-1-methylhydrazine that are generated are both ionized under these conditions. The release of protons can be used to follow the decomposition of these and related compounds. The release of protons can be assayed by following the decrease in absorbance at 560 nm of a weakly buffered (1 mM potassium phosphate) phenol red (21 mg/l) solution; initial pH 7.6 at 37° C. The assay can be calibrated using HCl standards.
as §2

[8] = test system: T. equiperdum; test: Activity against T. equiperdum
Procedure: as §1

[9] = test system: L1210 leukemia; test: Survival time of mice bearing the L1210 leukemia; type: in vivo
Procedure: The tumor-inhibitory properties of several compounds, e.g., 1,2-bis(methylsulfonyl)-1-methylhydrazine, 1-methyl-1,2,2-tris(methylsulfonyl)hydrazine, 1,2-bis(methylsulfonyl)-1,2-dimethylhydrazine and 1-(2-chloroethyl)-1,2,2-tris(methylsulfonyl)hydrazine were determined by measuring the effects of these agents on the survival time of mice bearing the L1210 leukemia as described by K. Shyam, L. A. Cosby, and A. C. Sartorelli, J. Med. Chem., 28, 525-527 (1985).
^a Administered once daily for 6 consecutive days, beginning 24 hours
after tumor transplantation with 5-10 animals being used per group.
^b Average change in body weight from onset to termination of therapy
^c % T/C = average survival time of treated/control animals ×

[10] = test system: T. rhodesiense (Y Tat 1.1); test: Survival time of CD-1 mice infected with T. rhodesiense (trypanocidal activity); type: in vivo, T. rhodesiense (Y Tat 1.1); CD-1 mice; settings: single ip dose 0.2 mmol/kg in 0.05 ml of DMSO
Procedure: The trypanocidal properties of several methylating agents including MeSO2 N(Me)N(SO2 Me)2 and MeSO2 N(Me)N(Me)SO2 Me were determined by measuring their effects on the survival time of CD-1 mice infected with T. rhodesiense (Y Tat 1.1), a pleimorphic strain that produces a non-relapsing disease in mice. The level of parasites in the bloodstream and body fluids increases by approximately 10-fold per day and the animals die when the parasite burden exceeds 1 to 2×10^9 cells/ml. Infection with a single viable parasite will kill a mouse in approximately 9 to 10 days.
Mice were infected ip with approximately 10^6 trypanosomes/mouse in phosphate buffered saline containing glucose. This level of parasites produces death in 4 days post-infection. These mice were treated (ip) with a single dose of drug dissolved in the appropriate vehicle 3 days after infection, when the parasitemia was 1 to 3×10^8 cells/ml of blood and the mice, if untreated, would survive for only 24 additional hours. The number of days the mice survived beyond that of the untreated controls was used as a measure of trypanocidal activity. The level of parasitemia in treated mice was measured at regular intervals to distinguish between parasite-related and drug toxicity-related deaths. No toxic deaths were observed. Mice that survived for 30 days without detectable parasitemias were considered cured. The effects of a single dose of various methylating agents on the survival time of trypanosome-bearing mice are summarized in Table II.
^a Drug that was administered was dissolved in 0.5 ml of phosphate
buffered saline containing glucose.
^b Drug that was administered was dissolved in 0.05 ml of DMSO.

[11] = test system: I. brucei brucei; test: Activity against brucei brucei
Procedure: as §1

[12] = test system: T. rhodesiense; test: Oral trypanocidal activity (preliminary); type: in vivo, T. rhodesiense; mice; settings: aqueous solutions, preliminary results
Source text: Orally active trypanocidal agents are desirable since, in areas where trypanosomiasis is endemic, other routes of drug administration frequently present problems.

[13] = test system: trypanosomes; test: Loss of antitrypanosomal activity upon aging of aqueous buffered solutions; type: in vivo; settings: aqueous buffered (pH 7.6)
[14] = late-stage sleeping sickness; cited from earlier work
[15] = L1210, at optimum effective daily dose, once daily × 6 days

NCCC[C@](N)(C(=O)O)C(F)F [DFMO, alpha-difluoromethylornithine]
Efficacy against early-stage sleeping sickness [1]: effective against early-stage sleeping sickness | Induction of differentiation in T. brucei [2]: induce differentiation in T. brucei | increase in decarboxylated S-adenosylmethionine (DSAM) and S-adenosylmethionine (SAM) [3]: 1000 fold

CN(NS(C)(=O)=O)S(C)(=O)=O [MeSO2 N(Me)NHSO2 Me, 1,2-bis(methylsulfonyl)-1-methylhydrazine]
Activity against T. evansi [4]: Activity has been demonstrated | Time within which decomposition was complete (no further methanol generated) [5]: ≤ 15 min | Activity against T. gambiense [6]: Activity has been demonstrated | Initial rate of hydrolysis / decomposition ([7]; 50 μM solution, phosphate buffered saline (pH 7.6), 37° C.): 12-15 % per minute | Decomposition in aqueous solutions ([7]; acidified solutions): can be inhibited by dosing in acidified solutions | Activity against T. equiperdum [8]: Activity has been demonstrated | 60-day cures, % [9, 15]: 0% | % T/C (average survival time of treated/control animals × 100) [9, 15]: 180% | AvΔ Wt, % (average change in body weight from onset to termination of therapy) ([9]; mouse, in vivo): -10.7% | Mean Extension of Life [10]: 11.8 days | Activity against I. brucei brucei [11]: Activity has been demonstrated | Trypanocidal activity on oral administration compared with Table II [12]: comparable activity to that reported in Table II | antitrypanosomal activity lost on aging ([13]; after 0 minutes of aging): 0% | antitrypanosomal activity lost on aging ([13]; after 1 minute of aging): 21% | antitrypanosomal activity lost on aging ([13]; after 5 minutes of aging): 73% | antitrypanosomal activity lost on aging ([13]; after 15 minutes of aging): 97%

Nc1nc(N)nc(Nc2ccc([As]3SCC(CO)S3)cc2)n1 (centres unmarked) [melarsoprol]
patients die due to drug toxicity [14]: up to 5%
